Measured values as given in article PMC10252989, “Significance of Astragaloside IV from the Roots of Astragalus mongholicus as an Acetylcholinesterase Inhibitor—From the Computational and Biomimetic Analyses to the In Vitro and In Vivo Studies of Safety” (International Journal of Molecular Sciences, 2023).

Columns and labels:
[1] = Biomimetic HPLC lipophilicity determination, IAM column; type: physicochemical; settings: for s (slope of Soczewiński-Wachtmeister equation): ACN-phosphate buffer pH 7.4; for logkw: ACN-phosphate buffer pH 7.4, retention factor extrapolated to pure water
Excerpt: (§1) To determine lipophilicity of the tested astragalosides, the biomimetic-High Performance Liquid Chromatography (HPLC) systems with a cholesterol-bound (CHOL) stationary phase as well as the Immobilized Artificial Membrane (IAM) column were used. These stationary phases have pseudomembrane properties and therefore are widely applied in chromatographic practice to determine lipophilicity of various groups of compounds, including newly synthesized ones.
(§2) Based on the Soczewiński–Wachtmeister Equation (1), the logarithms of retention factors extrapolated to pure water (logkw) values were calculated. These values can be considered as an alternative to the n-octanol/water partition coefficient recognized as the lipophilicity descriptor [31]. logk = logkw − sφ(1) where logk is the logarithm of the retention factor in the mixed effluent systems; φ is the volume fraction of organic modifier in the mobile phase; s is the slope characteristic of a given solute in the chromatographic system.
(§3) The Shimadzu Vp liquid chromatographic system (Shimadzu, Kyoto, Japan) equipped with an LC 10AT pump, an SPD 10A UV-Vis detector, an SCL 10A system controller, a CTO-10 AS chromatographic oven and a Rheodyne injector valve with a 20 µL loop was applied in the HPLC measurements.
(§4) The solutions of the isolated A IV as well as pharmacopoeial standards of A I–A III were prepared in methanol (Merck, Darmstadt, Germany; p.a.) at a concentration of 1 mg/mL. […] The optimization process of the chromatographic separation was made before the experiment. The flow rate of the mobile phases was established to be 1 mL/min and the temperature was set at 20 °C. The tested compounds were detected with UV light at λ = 203 nm.
(§5) The IAM.PC.DD2 column (IAM; 100 × 4.6 mm i.d., 10 µm; Regis Technologies, Morton Grove, IL, USA) and cholesterol-bonded (CHOL; Cosmosil; 75 × 2 mm i.d., 2.5 µm; Genore, Warsaw, Poland) were used as the stationary phase while the buffered solutions of acetonitrile (ACN) were used as mobile phases. In each measurement the composition of the mobile phases was: 0.3; 0.4; 0.5; 0.6 v/v ACN-buffer. The buffer was prepared from solutions of both Na2HPO4 (0.02 mol/dm^3) and citric acid (0.01 mol/dm^3).
(§6) The dead-time values were measured from the citric acid peaks. All the reported logarithms of the retention factors were measured three times.

[2] = Biomimetic HPLC lipophilicity determination, cholesterol-bound column; type: physicochemical; settings: CHOL column; for s (slope of Soczewiński-Wachtmeister equation): ACN-phosphate buffer pH 7.4; for logkw: ACN-phosphate buffer pH 7.4, retention factor extrapolated to pure water
Excerpt: as §1, §2, §3, §4, §5, §6

[3] = target: acetylcholinesterase (AChE) enzyme (Homo sapiens, UniProt P22303); assay: TLC bioautography assay for inhibition of acetylcholinesterase; type: biochemical; settings: amount of compound per spot
Experimental: In this study, the reference compounds of astragalosides II (A II), III (A III) and IV (A IV) at different concentrations were injected into the normal phase TLC plate covered with silica gel. Each experiment was repeated three times and the average values of the obtained peak areas corresponding to different injections of pure astragalosides were taken for the calculation of IC50 values of the saponins. For the three astragalosides: II, III and IV the following calibration curve equations were obtained: y = 70,773,628.9063x − 62,644.2995 (R^2 = 0.9732), y = 33,106,972.8125x − 67,429.4097 (R^2 = 0.9771), and y = 48,308,195.3125x + 3538.3021 (R^2 = 0.9981), respectively.
The TLC-bioautography method was used to determine the IC50 values of the tested saponins. Owing to the application of this technique, bright spots of active compounds were registered against the dark background. The TLC chromatogram was obtained on aluminium-covered normal phase TLC plates (Merck, Darmstadt, Germany, silica gel 60 F254).
To calculate the strength of the astragalosides, the IC50 values were determined for astragalosides II, III, and IV. For this purpose, 1 mg/mL solutions of all pure compounds were sprayed on the TLC plate using the Camag Linomat 5 (Muttenz, Switzerland) with the decreasing volumes in the range of 0.002–0.008 mg of compounds per spotevery 1 cm.
Later the TLC plate was subjected to the TLC-bioautography assay towards inhibitory properties against the AChE enzymeas described previously. Briefly, first the TLC plates were sprayed with asolution of 30 mg/20 mL of 1-naphtyl acetate. […] The chromatogram was analysed by the WinCats (v. 1.4, Camag) program and the peak areas of every spot were determined. Based on the numerical values obtained corresponding to the intensity of discoloured zones measured with the peak areas, the calibration curves were determined and the IC50 values were calculated as half of the peak area from the biggest spot that stayedwithin the linearity range area.

[4] = post-mortem brain tissues of mice; cited from earlier work
[5] = test system: SH-SY5Y human neuroblastoma cell line; assay: In vitro cytotoxicity test (MTT); type: cell-based; settings: for cell viability versus control group (saline): 24 h, MTT
Experimental: The SH-SY5Y human neuroblastoma cell lines (ATCC CRL-2266) were maintained in a1:1 mixture of Eagle’s Minimum Essential Medium and F12 Medium, supplemented with 10% (v/v) of foetal bovine serum. The cells were grown at 37 °C in a humidified incubator with 5% CO2.
The viability of SH-SY5Y cells was evaluated based on the reduction of the yellow tetrazolium salt (3-(4,5-dimethylthiazol-2-yl)-2,5-diphenyltetrazolium bromide or MTT) to the purple formazan crystals by the metabolically active cells. The cells were seeded onto the 96-well plates at the density of 10,000 cells/well, grown overnight and treated with astragaloside IV at 6, 12.5 or 25 μg/mL. Following 24 h of incubation the medium was replaced with 200 µL of fresh medium containing MTT (final concentration 0.5 mg/mL) and the cells were incubated for a further 4 h at 37 °C. The precipitated formazan was dissolved in 100 µL DMSO and the absorbance of the samples was measured at λ = 540 nm. The mean absorbance measured for the control cells, treated with the solvent (saline), was set to 100% cellular viability and used to calculate the percent of viable cells under each experimental condition.

[6] = test system: zebrafish (Danio rerio) embryos; assay: Zebrafish embryo acute toxicity test (OECD Test No. 236); type: in vivo
Experimental: Zebrafish (Danio rerio) embryos were obtained from the Experimental Medicine Centre, Medical University of Lublin, Poland. The animals were kept in an incubator under the appropriate environmental conditions (28.5 ± 0.5 °C, light/dark cycle: 14/10 h) up to 96 h post-fertilization (hpf). For the studies, the National Institutes of Health Guide for the Care and Use of Laboratory Animals (Directive 2010/63/EU) was applied. Thus, for the yolk-feeding larvae up to 120 hpf ethical approval is not required. Nevertheless, all attempts were made to minimize the number of animals and their suffering. Immediately after the experiments, the larval zebrafish were euthanized in […] tricaine solution.
In order to assess the effect of astragaloside IV on the developing organism, the zebrafish embryo acute toxicity test was carried out according to the Organization for Economic Cooperation and Development recommendation for the testing of chemicals (Test No. 236) as described previously. One hour after fertilization, viable, perfectly spherical and completely transparent embryos were selected and transferred to 12 well plates (Sarstedt, Germany). The embryos were randomly divided into control and experimental groups. The embryos were kept in each well until the appropriate stage of development was reached of 96 hpf. Two batches of embryos (3 wells per batch, n = 5–6 per well) were kept in 3 mL of zebrafish E3 medium without treatment, i.e., the control group and that was supplemented with 25 µg/mL of astragaloside IV, i.e., the experimental group. Mortality was assessed after 23, 47, 71 and 95 h of exposition. Hatchability was evaluated after 71 and 95 h of exposition. Morphological abnormalities were scored after 95 h of exposition: heartbeat, heart oedema, yolk sac utilization/necrosis, jaw development, eye size, body axis and haemorrhage. Furthermore, to assess muscle function and performance, the touch-evoked response was performed by slight touching of the tail with metal tweezers. The criteria for the larval response were as follows: absent, decreased and normal, as described in detail in our previous paper.
The obtained data were pooled together. The Chi-squared test or the Fisher’s exact test was used for statistical purposes.

acetylcholinesterase (AChE) enzyme, sequence (P22303 32-614): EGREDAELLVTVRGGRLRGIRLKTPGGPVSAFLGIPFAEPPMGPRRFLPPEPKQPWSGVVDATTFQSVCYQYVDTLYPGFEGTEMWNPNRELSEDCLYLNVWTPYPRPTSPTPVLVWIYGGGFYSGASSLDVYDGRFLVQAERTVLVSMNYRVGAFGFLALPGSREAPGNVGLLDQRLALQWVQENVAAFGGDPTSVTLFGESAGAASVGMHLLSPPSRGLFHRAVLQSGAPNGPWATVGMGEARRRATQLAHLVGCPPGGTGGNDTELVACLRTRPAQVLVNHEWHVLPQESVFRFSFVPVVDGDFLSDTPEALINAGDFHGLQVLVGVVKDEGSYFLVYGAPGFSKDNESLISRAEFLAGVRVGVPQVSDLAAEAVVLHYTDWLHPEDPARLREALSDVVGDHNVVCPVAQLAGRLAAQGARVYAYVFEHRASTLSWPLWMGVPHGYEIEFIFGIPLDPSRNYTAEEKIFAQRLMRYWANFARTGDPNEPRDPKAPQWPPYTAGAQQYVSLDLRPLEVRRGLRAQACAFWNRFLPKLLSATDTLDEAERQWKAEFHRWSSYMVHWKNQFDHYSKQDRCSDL

| Compound | s (slope of Soczewiński-Wachtmeister equation) [1] | logkw [1] | s (slope of Soczewiński-Wachtmeister equation) [2] | logkw [2] | IC50 [3] | logBB [4] | cell viability versus control group (saline) ([5]; 25 μg/mL) | cell viability versus control group (saline) ([5]; 6 and 12.5 μg/mL) | decrease in cellular SH-SY5Y viability ([5]; all analysed conditions (6, 12.5, 25 μg/mL)) | mortality rate versus control ([6]; 25 µg/mL, 1, 2, 3 and 4 dpf, p > 0.05) | larval hatchability ([6]; 25 µg/mL, 3- and 4-day-old fish, p > 0.05) | scored morphological abnormalities versus control ([6]; 25 µg/mL, 95 h exposition) | touch-evoked response ([6]; 25 µg/mL, 95 h exposition) |
| --- | --- | --- | --- | --- | --- | --- | --- | --- | --- | --- | --- | --- | --- |
| CC(=O)OC1C(O)COC(OC2CCC34CC35CCC3(C)C(C6(C)CCC(C(C)(C)O)O6)C(O)CC3(C)C5CC(OC3OC(CO)C(O)C(O)C3O)C4C2(C)C)C1OC(C)=O (stereo not drawn) [A I, Astragaloside I] | 6.040 | 2.713 | 5.590 | 3.234 |  |  |  |  |  |  |  |  |  |
| CC(=O)O[C@H]1[C@H](O[C@H]2CC[C@]34C[C@]35CC[C@]3(C)[C@@H]([C@@]6(C)CC[C@@H](C(C)(C)O)O6)[C@@H](O)C[C@@]3(C)[C@@H]5C[C@H](O[C@@H]3O[C@H](CO)[C@@H](O)[C@H](O)[C@H]3O)[C@H]4C2(C)C)OC[C@@H](O)[C@@H]1O [A II, Astragaloside II] | 4.715 | 2.104 | 6.570 | 3.209 | 0.00488 mg |  |  |  |  |  |  |  |  |
| CC(C)(O)[C@@H]1CC[C@](C)([C@H]2[C@@H](O)C[C@@]3(C)[C@@H]4C[C@H](O)[C@H]5C(C)(C)[C@@H](O[C@@H]6OC[C@@H](O)[C@H](O)[C@H]6O[C@@H]6O[C@H](CO)[C@@H](O)[C@H](O)[C@H]6O)CC[C@@]56C[C@@]46CC[C@]23C)O1 [A III, Astragaloside III] | 4.165 | 1.807 | 5.681 | 2.627 | 0.0033 mg |  |  |  |  |  |  |  |  |
| CC(C)(O)[C@@H]1CC[C@](C)([C@H]2[C@@H](O)C[C@@]3(C)[C@@H]4C[C@H](O[C@@H]5O[C@H](CO)[C@@H](O)[C@H](O)[C@H]5O)[C@H]5C(C)(C)[C@@H](O[C@@H]6OC[C@@H](O)[C@H](O)[C@H]6O)CC[C@@]56C[C@@]46CC[C@]23C)O1 [A IV, Astragaloside IV] | 3.965 | 1.727 | 6.000 | 2.668 | 0.00316 mg | 0.49 | slightly lower | slightly higher | no significant decrease | no difference | did not affect | no difference | normal |
